Source: US11993576B2, “N-benzyl-N-arylsulfonamide derivative and preparation and use thereof” (Hangzhou Yirui Pharmaceutical Technology Co., Ltd, priority 2019, dated 2024)

What follows are compounds tested against human Kv1.3 (Homo sapiens, UniProt P22001) (assay: IonWorks automated patch clamp assay of inhibitory activity against Kv1.3). Conditions: automated patch clamp method; CHO-K1 cells stably expressing human Kv1.3.
Type: cell-based
Protocol: I. IonWorks Automated Patch Clamp Assay of Inhibitory Activity Against Kv1.3
The principle and method for Kv1.3 IonWorks assay can be found in Schroeder et al. [Schroeder et al. J Biomol Screen 2003, 8(1):50-64]
Inhibitory activity of the compounds against Kv1.3 was assessed using a CHO-K1 recombinant cell line stably expressing human Kv1.3 (Charles River, Calif.). The cells were cultured in an F-12K culture medium containing 5% calf serum (Invitrogen, Carlsbad. Calif.) in an incubator at 37° C. and under air humidity with 6% CO2. Prior to be fed in the IonWorks system, the adherent cells were treated with Versene at 37° C. for 6-7 min. After gently beating the culture flask, the cells were re-suspended in a PBS phosphate buffer, and then were centrifuged at 50×g for 4 min. After a short grinding, the cells were eventually re-suspended in an external recording solution at a density of approximately 1×10^6/mL.
The compounds were dissolved in DMSO to formulate a final assay concentration of 300× on the master plate. The final gradient assay concentrations were […], 0.096, 0.048, 0.24, 1.2, 6 and 30 μM. All 300× stock solutions of each compound in DMSO were transferred to a 384-well plate with 2 μl per well. The plates were sealed and stored at −80° C. until the day of assay.
On the day of assay, the plates were each thawed at room temperature. After centrifugation, 198 μl of the external recording solution (with the components of: 130 mM Na-Gluconate, 20 mM NaCl, 4 mM KCl, 1 mM MgCl2, 1.8 mM CaCl2, 5 mM Glucose and 10 mM HEPES, pH7.3) was added and mixed thoroughly. This step provided a 1:100 dilution for the compounds. After addition of cells to IonWorks, a further 1:3 dilution was carried out, resulting in a total dilution of 1:300. At least 8 wells were reserved as blank control on each of the plates, i.e., containing only 0.3% DMSO. In addition, at least 8 wells were reserved as positive control to detect the specificity to cell signals. Fluoxetine, a compound as the positive control, was assayed at its maximum blocking concentration (100 μm) and secondary maximum blocking concentration (10 μm). In addition, an internal recording solution used in the assay (with the components of: 100 mM K-gluconate, 40 mM KCl, 1 mM MgCl2, 1 mM EGTA and 10 mM HEPES, pH7.3) contained Amphotericin B at a final concentration of 200 μg/mL to gain current channels inside the cells. The osmotic pressure of the solution was adjusted with sucrose.
Experimental procedures were carried out following the protocols as set by IonWorks Quattro system (Molecular Devices, San Jose, CA). The current of human Kv1.3 was elicited to 0 millivolt (mV) for four times by a pulse lasting 1 second. A potential of −80 mV was maintained between pulses, for 5 seconds. First, a early voltage application program was started in the IonWorks Quattro system, and then the compounds were added and incubated for 600 seconds. Next, a late voltage application program was started until completion of all assays.
The maximum peak outward currents both before and after addition of the compounds as well as the average tail current elicited when the fourth pulse rose to 0 mV were measured. The inhibitory activity of the compounds against Kv1.3 can be calculated by dividing the measured current amplitude after addition of the compounds by the measured current amplitude before addition of the compounds.
All data was calibrated by a data filtration program of the IonWorks Quattro system. The filtration standard was that: seal quality >30 MΩ, decrease of seal resistance <50% and current amplitude >200 pA.

Chain of human Kv1.3 (P22001 whole entry): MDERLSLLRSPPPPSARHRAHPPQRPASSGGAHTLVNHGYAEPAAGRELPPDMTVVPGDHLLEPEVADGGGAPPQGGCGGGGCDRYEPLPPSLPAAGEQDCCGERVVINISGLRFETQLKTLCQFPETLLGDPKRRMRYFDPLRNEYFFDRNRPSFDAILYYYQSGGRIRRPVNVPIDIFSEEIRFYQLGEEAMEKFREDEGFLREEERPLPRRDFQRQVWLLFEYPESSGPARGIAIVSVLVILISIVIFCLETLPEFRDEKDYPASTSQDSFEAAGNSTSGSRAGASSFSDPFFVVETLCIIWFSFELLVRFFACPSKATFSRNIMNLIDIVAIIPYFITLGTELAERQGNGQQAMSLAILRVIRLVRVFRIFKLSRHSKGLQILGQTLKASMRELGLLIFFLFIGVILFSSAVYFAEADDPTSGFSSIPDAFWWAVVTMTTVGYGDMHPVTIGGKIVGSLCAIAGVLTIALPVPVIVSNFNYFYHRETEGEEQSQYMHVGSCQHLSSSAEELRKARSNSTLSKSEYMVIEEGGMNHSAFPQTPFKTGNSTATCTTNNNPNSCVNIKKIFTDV

Compared with CCCS(=O)(=O)N(Cc1cscn1)c1ccc(N2CCN(C(=O)OCC)CC2)c(C#N)c1 [Compound 34, Ethyl 4-(2-cyano-4-(N-(thiazol-4-ylmethyl)propanesulfonamido)phenyl) piperazin-1-formate], CCCS(=O)(=O)N(Cc1cncn1C)c1ccc(N2CCN(C(=O)OCC)CC2)c(C#N)c1 [Compound 35, Ethyl 4-(2-cyano-4-(N-((1-methyl-1H-imidazol-5-yl)methyl)propanesulfonamido)phenyl)piperazin-1-formate] is 3.2-fold lower in IC50: 645 nM for the first, 201 nM for the second. The second is the more potent here.

CCCS(=O)(=O)N(Cc1ccnn1C)c1ccc(N2CCN(C(=O)OCC)CC2)c(C#N)c1 [Compound 36, Ethyl 4-(2-cyano-4-(N-((1-methyl-1H-pyrazol-5-yl)methyl)propanesulfon-amido)phenyl)piperazin-1-formate] and CCCS(=O)(=O)N(Cc1ccncc1)c1ccc(N2CCN(C(=O)N(C)C)CC2)c(C#N)c1 [Compound 41, 4-(2-cyano-4-(N-(pyridin-4-ylmethyl)propanesulfonamido)phenyl)-N,N-dimethylpiperazin-1-formamide] are within 1.5-fold of each other in IC50: 130 nM for the first, 131 nM for the second.

Compared with CCCCS(=O)(=O)N(Cc1ccc(F)cc1)c1ccc(N2CCN(C(=O)N(C)C)CC2)c(C#N)c1 [Compound 38, 4-(2-cyano-4-(N-(4-fluorobenzyl)butanesulfonamido)phenyl)-N,N-dimethylpiperazin-1-formamide], CC(C)CCS(=O)(=O)N(Cc1ccc(F)cc1)c1ccc(N2CCN(C(=O)N(C)C)CC2)c(C#N)c1 [Compound 39, 4-(2-cyano-4-((N-(4-fluorobenzyl)-3-methylbutyl)sulfonamido)phenyl)-N,N-dimethylpiperazin-1-formamide] is 1.5-fold higher in IC50: 101 nM for the first, 155 nM for the second.

Going from CN(C)C(=O)N1CCN(c2ccc(N(Cc3ccc(F)cc3)S(=O)(=O)CC(C)(C)C)cc2C#N)CC1 [Compound 40, 4-(2-cyano-4-((N-(4-fluorobenzyl)-2,2-dimethylpropyl)sulfonamido)phenyl)-N,N-dimethylpiperazin-1-formamide] to CCS(=O)(=O)N(Cc1ccc(F)cc1)c1ccc(N2CCN(S(=O)(=O)N(C)C)CC2)c(C#N)c1 [Compound 43, 4-(2-cyano-4-(N-(4-fluorobenzyl)ethanesulfonamido)phenyl)-N,N-dimethylpiperazin-1-sulfonamide], the IC50 falls from 206 nM to 124 nM (1.7-fold).

CCCS(=O)(=O)N(Cc1ccncn1)c1ccc(N2CCN(C(=O)N(C)C)CC2)c(C#N)c1 [Compound 42, 4-(2-cyano-4-(N-(pyrimidin-4-ylmethyl)propanesulfonamido)phenyl)-N,N-dimethylpiperazin-1-formamide] and CCCS(=O)(=O)N(Cc1ccc(OC)cc1)c1ccc(N2CCN(S(=O)(=O)N(C)C)CC2)c(C#N)c1 [Compound 45, 4-(2-cyano-4-(N-(4-methoxybenzyl)propanesulfonamido)phenyl)-N,N-dimethylpiperazin-1-sulfonamide] are within 1.5-fold of each other in IC50: 167 nM for the first, 224 nM for the second.

Compared with CN(C)S(=O)(=O)N1CCN(c2ccc(N(Cc3ccnn3C)S(=O)(=O)c3ccc(F)cc3)cc2C#N)CC1 [Compound 46, 4-(2-cyano-4-((4-fluoro-N-((1-methyl-1H-pyrazol-5-yl)methyl)phenyl)sulfonamido)phenyl)-N,N-dimethylpiperazin-1-sulfonamide], CN(C)S(=O)(=O)N1CCN(c2ccc(N(Cc3ccc(F)cc3)S(=O)(=O)c3cccnc3)cc2C#N)CC1 [Compound 48, 4-(2-cyano-4-(-N-(4-fuorophenyl)pyridin-3-sulfonamido)phenyl)-N,N-dimethylpiperazin-1-sulfonamide] is 2.5-fold lower in IC50: 356 nM for the first, 145 nM for the second.

Going from CN(C)S(=O)(=O)N1CCN(c2ccc(N(Cc3ccc(F)cc3F)S(=O)(=O)CC3CC3)cc2C#N)CC1 [Compound 47, 4-(2-cyano-4-((1-cyclopropyl-N-(2,4-difluorobenzyl)methyl)sulfonamido)phenyl)-N,N-dimethylpiperazin-1-sulfonamide] to CCCS(=O)(=O)N(Cc1ccc(F)cc1)c1ccc(SC2CCN(C(C)=O)CC2)c(C#N)c1 [Compound 54, N-(4-((1-acetylpiperidin-4-yl)thio)-3-cyanophenyl)-N-(4-fluorobenzyl) propanesulfonamide], the IC50 rises from 124 nM to 389 nM (3.1-fold).

Compared with CCCS(=O)(=O)N(Cc1ccc(F)cc1)c1ccc(N2CCN(C(=O)OCC)CC2)c(C(F)(F)F)c1 [Compound 49], CCCS(=O)(=O)N(Cc1ccc(F)cc1)c1ccc(OC2CCN(C(C)=O)CC2)c(C#N)c1 [Compound 53, N-(4-((1-acetylpiperidin-4-yl)oxy)-3-cyanophenyl)-N-(4-fluorobenzyl) propanesulfonamide] is 1.8-fold higher in IC50: 160 nM for the first, 291 nM for the second.

Going from CCCS(=O)(=O)N(Cc1ccc(F)cc1)c1ccc(OC2CCNCC2)c(C#N)c1 [Compound 50, N-(3-cyano-4-(piperidin-4-yloxy)phenyl)-N-(4-fluorobenzyl) propanesulfonamide] to CCCS(=O)(=O)N(Cc1ccc(F)cc1)c1ccc(NC2CCNCC2)c(C#N)c1 [Compound 52, N-(3-cyano-4-(piperidin-4-ylamino)phenyl)-N-(4-fluorobenzyl) propanesulfonamide], the IC50 falls from 370 nM to 139 nM (2.7-fold).

First: CCCS(=O)(=O)N(Cc1ccc(F)cc1)c1ccc(SC2CCNCC2)c(C#N)c1 [Compound 51, N-(3-cyano-4-(piperidin-4-ylthio)phenyl)-N-(4-fluorobenzyl) propanesulfonamide]
Second: CCCS(=O)(=O)N(Cc1ccc(F)cc1)c1ccc(SC2CCN(C=O)CC2)c(C#N)c1 [Compound 57, N-(4-((1-formylpiperidin-4-yl)thio)-3-cyanophenyl)-N-(4-fluorobenzyl) propanesulfonamide]
The IC50 of the first is 1.6-fold higher: 412 nM for the first, 254 nM for the second.

Compared with CCCS(=O)(=O)N(Cc1ccc(F)cc1)c1ccc(NC2CCN(C(C)=O)CC2)c(C#N)c1 [Compound 55, N-(4-((1-acetylpiperidin-4-yl)amino)-3-cyanophenyl)-N-(4-fluorobenzyl)propanesulfonamide], CCCS(=O)(=O)N(Cc1ccc(F)cc1)c1ccc(NC2CCN(C=O)CC2)c(C#N)c1 [Compound 58, N-(4-((1-formylpiperidin-4-yl)amino)-3-cyanophenyl)-N-(4-fluoro-benzyl)propanesulfonamide] is 1.7-fold higher in IC50: 160 nM for the first, 279 nM for the second. The first is the more potent here.

CCCS(=O)(=O)N(Cc1ccc(F)cc1)c1ccc(OC2CCN(C=O)CC2)c(C#N)c1 [Compound 56, N-(4-((1-formylpiperidin-4-yl)oxy)-3-cyanophenyl)-N-(4-fluorobenzyl) propanesulfonamide] and N#Cc1cc(N(Cc2ccccc2)S(=O)(=O)c2ccccc2)ccc1OC1CCN(C=O)CC1 [Compound 60, N-(4-((1-formylpiperidin-4-yl)oxy)-3-cyanophenyl)-N-benzylbenzenesulfonamide] are within 1.5-fold of each other in IC50: 250 nM for the first, 332 nM for the second.

In the case of CC(=O)N1CCC(Oc2ccc(N(Cc3ccccc3)S(=O)(=O)c3ccccc3)cc2C#N)CC1 [Compound 59, N-(4-((1-acetylpiperidin-4-yl)oxy)-3-cyanophenyl)-N-benzylbenzenesulfonamide], the IC50 is reported as 441 nM.
